{
  "source": "ChEMBL document CHEMBL6103568",
  "about": "“An overview of small-molecule agents for the treatment of psoriasis” (Bioorg Med Chem, 2025)",
  "key": {"[1]": {"target": "Phosphodiesterase 4 (Homo sapiens, UniProt P27815+Q08499+Q07343+Q08493)", "experiment": "Inhibition of PDE4 (unknown origin)", "format": "protein assay"}, "[2]": {"target": "Cytochrome P450 3A5 (Homo sapiens, UniProt P20815)", "sequence (P20815 whole entry)": "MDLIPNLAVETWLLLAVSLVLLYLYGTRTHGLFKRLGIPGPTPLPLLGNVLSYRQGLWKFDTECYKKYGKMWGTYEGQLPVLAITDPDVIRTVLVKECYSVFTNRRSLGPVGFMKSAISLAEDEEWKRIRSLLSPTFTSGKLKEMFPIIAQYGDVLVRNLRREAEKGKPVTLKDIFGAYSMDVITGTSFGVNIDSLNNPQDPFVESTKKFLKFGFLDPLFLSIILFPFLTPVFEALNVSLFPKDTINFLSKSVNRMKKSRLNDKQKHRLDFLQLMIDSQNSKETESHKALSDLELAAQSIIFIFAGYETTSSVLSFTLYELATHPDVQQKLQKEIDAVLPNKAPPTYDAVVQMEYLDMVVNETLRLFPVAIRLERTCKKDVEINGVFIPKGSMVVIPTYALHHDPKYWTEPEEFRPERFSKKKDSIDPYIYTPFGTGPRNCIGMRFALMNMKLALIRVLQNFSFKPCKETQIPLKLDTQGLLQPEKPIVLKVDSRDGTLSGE", "experiment": "Inhibition of CYP3A5 (unknown origin)", "format": "ADME"}, "[3]": {"target": "Tyrosine-protein kinase JAK2 (Homo sapiens, UniProt O60674)", "sequence (O60674 whole entry)": "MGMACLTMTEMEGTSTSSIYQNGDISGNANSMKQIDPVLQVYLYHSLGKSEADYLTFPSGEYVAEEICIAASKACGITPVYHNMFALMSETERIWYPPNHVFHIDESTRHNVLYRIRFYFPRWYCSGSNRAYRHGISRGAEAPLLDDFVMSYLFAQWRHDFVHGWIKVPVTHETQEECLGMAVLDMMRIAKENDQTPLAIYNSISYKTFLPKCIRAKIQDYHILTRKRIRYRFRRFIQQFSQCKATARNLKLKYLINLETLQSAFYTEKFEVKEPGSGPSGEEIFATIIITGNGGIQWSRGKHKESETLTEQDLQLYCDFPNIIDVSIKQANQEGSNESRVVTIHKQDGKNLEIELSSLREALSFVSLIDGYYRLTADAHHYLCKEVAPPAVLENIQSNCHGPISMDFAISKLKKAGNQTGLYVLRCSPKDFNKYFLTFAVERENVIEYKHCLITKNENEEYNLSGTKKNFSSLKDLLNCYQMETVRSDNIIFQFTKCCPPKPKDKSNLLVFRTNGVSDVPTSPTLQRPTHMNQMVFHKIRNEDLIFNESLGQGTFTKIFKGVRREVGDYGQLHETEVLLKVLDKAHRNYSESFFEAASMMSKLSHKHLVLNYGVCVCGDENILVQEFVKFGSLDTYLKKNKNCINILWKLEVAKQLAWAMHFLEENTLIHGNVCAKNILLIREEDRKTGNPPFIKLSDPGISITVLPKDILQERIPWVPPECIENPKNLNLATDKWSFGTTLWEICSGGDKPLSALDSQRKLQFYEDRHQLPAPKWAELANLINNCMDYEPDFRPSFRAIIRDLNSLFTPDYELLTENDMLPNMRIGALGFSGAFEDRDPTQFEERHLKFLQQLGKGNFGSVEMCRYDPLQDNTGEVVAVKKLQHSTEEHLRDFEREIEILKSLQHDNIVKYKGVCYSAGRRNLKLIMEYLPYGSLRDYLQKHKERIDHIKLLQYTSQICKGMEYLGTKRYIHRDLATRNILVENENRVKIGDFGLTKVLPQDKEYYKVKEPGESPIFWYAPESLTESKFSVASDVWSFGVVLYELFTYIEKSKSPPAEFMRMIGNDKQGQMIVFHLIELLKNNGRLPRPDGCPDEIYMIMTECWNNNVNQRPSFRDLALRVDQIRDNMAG", "experiment": "Inhibition of JAK2 (unknown origin)"}, "[4]": {"target": "3',5'-cyclic-AMP phosphodiesterase 4B (Homo sapiens, UniProt Q07343)", "sequence (Q07343 whole entry)": "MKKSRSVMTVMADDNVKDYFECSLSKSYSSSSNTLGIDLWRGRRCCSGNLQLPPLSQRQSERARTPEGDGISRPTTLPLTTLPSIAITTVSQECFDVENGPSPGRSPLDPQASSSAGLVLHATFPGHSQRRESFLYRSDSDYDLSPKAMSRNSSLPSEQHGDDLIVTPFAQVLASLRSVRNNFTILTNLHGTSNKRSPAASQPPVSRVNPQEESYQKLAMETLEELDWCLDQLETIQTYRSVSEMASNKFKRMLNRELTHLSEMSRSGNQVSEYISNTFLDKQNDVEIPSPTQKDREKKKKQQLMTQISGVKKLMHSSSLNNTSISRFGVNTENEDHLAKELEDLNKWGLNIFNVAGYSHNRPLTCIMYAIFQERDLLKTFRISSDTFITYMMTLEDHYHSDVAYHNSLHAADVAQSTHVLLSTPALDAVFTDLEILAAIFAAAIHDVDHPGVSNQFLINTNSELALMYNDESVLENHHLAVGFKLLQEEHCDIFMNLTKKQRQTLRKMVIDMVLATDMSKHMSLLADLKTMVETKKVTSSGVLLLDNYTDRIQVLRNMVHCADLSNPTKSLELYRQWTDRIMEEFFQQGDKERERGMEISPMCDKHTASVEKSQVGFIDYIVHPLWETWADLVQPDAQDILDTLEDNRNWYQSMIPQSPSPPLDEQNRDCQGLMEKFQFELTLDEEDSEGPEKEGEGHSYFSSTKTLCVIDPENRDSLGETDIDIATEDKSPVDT", "experiment": "Inhibition of PDE4B (unknown origin)"}, "[5]": {"target": "Sphingosine 1-phosphate receptor 1 (Homo sapiens, UniProt P21453)", "sequence (P21453 whole entry)": "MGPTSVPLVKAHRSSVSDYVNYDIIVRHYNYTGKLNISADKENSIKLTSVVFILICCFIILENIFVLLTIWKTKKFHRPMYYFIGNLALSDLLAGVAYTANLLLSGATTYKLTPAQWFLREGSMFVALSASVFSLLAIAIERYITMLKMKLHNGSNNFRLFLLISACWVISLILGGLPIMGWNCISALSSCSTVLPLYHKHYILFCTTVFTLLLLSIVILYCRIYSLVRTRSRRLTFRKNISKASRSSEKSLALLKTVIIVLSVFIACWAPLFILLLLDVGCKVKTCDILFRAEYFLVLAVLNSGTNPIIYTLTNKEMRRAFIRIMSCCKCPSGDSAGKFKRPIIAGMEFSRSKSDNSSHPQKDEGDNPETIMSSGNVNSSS", "experiment": "Agonist activity at S1P1 (unknown origin) by HTRF assay", "format": "functional"}},
  "data": [
    {"smiles": "CCOc1cc([C@@H](CS(C)(=O)=O)N2C(=O)c3csc(NC(C)=O)c3C2=O)ccc1OC", "values": [
      {"measurement": "IC50", "setting": "[1]", "value": 0.114, "unit": "µM"}
    ]},
    {"smiles": "O=C(O)CC1CCN(C(=O)c2ccc(Cl)c(Cn3ccc4cc(C(F)(F)F)cc(Cl)c43)c2Cl)CC1", "note": "[CEDIROGANT]", "values": [
      {"measurement": "IC50", "setting": "[2]", "value": 0.206, "unit": "µM"}
    ]},
    {"smiles": "CCS(=O)(=O)N1CC(CC#N)C1n1cc(-c2ncnc3[nH]ccc23)cn1", "note": "(stereo not given)", "values": [
      {"measurement": "IC50", "setting": "[3]", "value": 0.0057, "unit": "µM"}
    ]},
    {"smiles": "COc1ccc([C@H](N2C(=O)c3cccc(NC(C)=O)c3C2=O)S(C)(=O)=O)cc1OC", "values": [
      {"measurement": "IC50", "setting": "[4]", "value": 0.074, "unit": "µM"}
    ]},
    {"smiles": "CCC/N=C1/S/C(=C\\c2ccc(OC[C@H](O)CO)c(Cl)c2)C(=O)N1c1ccccc1C", "values": [
      {"measurement": "EC50", "setting": "[5]", "value": 0.006, "unit": "µM"}
    ]}
  ]
}
